Source: article PMC5218480 (PLoS ONE, 2017)

Tested on: MV-4-11 cells
Assay: Gene expression microarray analysis (Affymetrix PrimeView) and GSEA
Assay type: cell-based, human
Design: RFU PODN (11730768_x_at) / Fold change /veh PODN (11730768_x_at) / RFU LINC00158 (11744669_a_at) / Fold change /veh LINC00158 (11744669_a_at) / RFU DUSP10 (11751237_a_at) / Fold change /veh DUSP10 (11751237_a_at) / RFU ID3 (11757404_x_at) / Fold change /veh ID3 (11757404_x_at) / RFU PLEKHG5 (11737974_s_at) / Fold change /veh PLEKHG5 (11737974_s_at) / RFU LRRC4B (11730491_at) / Fold change /veh LRRC4B (11730491_at) / RFU GIMAP4 (11747438_a_at) / Fold change /veh GIMAP4 (11747438_a_at) / RFU KRT8 (11758183_x_at) / Fold change /veh KRT8 (11758183_x_at) / RFU CNN1 (11734310_a_at) / Fold change /veh CNN1 (11734310_a_at) / RFU VPS37D (11726825_at) / Fold change /veh VPS37D (11726825_at) / RFU C10orf10 (11716522_x_at) / Fold change /veh C10orf10 (11716522_x_at) / RFU KIR2DL2 /// KIR2DL4 /// KIR2DL5A /// KIR2DL5B /// KIR2DS1 /// KIR2DS2 /// KIR2DS3 /// KIR2DS4 /// KIR3DL3 /// KIR3DL3 /// KIR3DS1 (11738374_at) / Fold change /veh KIR2DL2 /// KIR2DL4 /// KIR2DL5A /// KIR2DL5B /// KIR2DS1 /// KIR2DS2 /// KIR2DS3 /// KIR2DS4 /// KIR3DL3 /// KIR3DL3 /// KIR3DS1 (11738374_at) / RFU C1QL1 (11718748_at) / Fold change /veh C1QL1 (11718748_at) / RFU TMPRSS4 (11747572_a_at) / Fold change /veh TMPRSS4 (11747572_a_at) / RFU HAMP (11756126_x_at) / Fold change /veh HAMP (11756126_x_at) / RFU RNFT2 (11725882_a_at) / Fold change /veh RNFT2 (11725882_a_at) / RFU NR4A2 (11747474_a_at) / Fold change /veh NR4A2 (11747474_a_at) / RFU ABCC12 (11746883_a_at) / Fold change /veh ABCC12 (11746883_a_at) / RFU TMEM136 (11760407_x_at) / Fold change /veh TMEM136 (11760407_x_at) / RFU CLDN22 /// WWC2 (11732394_at) / Fold change /veh CLDN22 /// WWC2 (11732394_at) / RFU HLA-DPB1 (11760878_x_at) / Fold change /veh HLA-DPB1 (11760878_x_at) / RFU SPINT1 (11716480_a_at) / Fold change /veh SPINT1 (11716480_a_at) / RFU GAP43 (11754022_s_at) / Fold change /veh GAP43 (11754022_s_at) / RFU A4GNT (11735810_at) / Fold change /veh A4GNT (11735810_at) / RFU PRB3 (11715151_x_at) / Fold change /veh PRB3 (11715151_x_at) / RFU TUBB4B (11761932_at) / Fold change /veh TUBB4B (11761932_at) / RFU CAPN14 (11732068_a_at) / Fold change /veh CAPN14 (11732068_a_at) / RFU TMCC2 (11721928_a_at) / Fold change /veh TMCC2 (11721928_a_at) / RFU IRGQ (11745062_a_at) / Fold change /veh IRGQ (11745062_a_at) / RFU FAM174B (11720279_a_at) / Fold change /veh FAM174B (11720279_a_at) / RFU TMPRSS4 (11748680_a_at) / Fold change /veh TMPRSS4 (11748680_a_at) / RFU FAM212B (11763350_a_at) / Fold change /veh FAM212B (11763350_a_at) / RFU PLEKHG5 (11743358_a_at) / Fold change /veh PLEKHG5 (11743358_a_at) / RFU ZSCAN30 (11745921_a_at) / Fold change /veh ZSCAN30 (11745921_a_at) / RFU CMKLR1 (11741424_a_at) / Fold change /veh CMKLR1 (11741424_a_at) / RFU LOC101060620 /// MAPK8IP1 (11723275_at) / Fold change /veh LOC101060620 /// MAPK8IP1 (11723275_at) / RFU SPTSSB (11747773_x_at) / Fold change /veh SPTSSB (11747773_x_at) / RFU PRSS12 (11739890_at) / Fold change /veh PRSS12 (11739890_at) / RFU BIN1 (11741810_x_at) / Fold change /veh BIN1 (11741810_x_at) / RFU WNT11 (11732464_a_at) / Fold change /veh WNT11 (11732464_a_at) / RFU C10orf10 (11716521_a_at) / Fold change /veh C10orf10 (11716521_a_at) / RFU C5orf56 (11738089_at) / Fold change /veh C5orf56 (11738089_at) / RFU CYB561 (11721691_x_at) / Fold change /veh CYB561 (11721691_x_at) / RFU ANKRD19P (11752326_a_at) / Fold change /veh ANKRD19P (11752326_a_at) / RFU OR2T12 /// OR2T33 /// OR2T8 (11738714_s_at) / Fold change /veh OR2T12 /// OR2T33 /// OR2T8 (11738714_s_at) / RFU VCAN (11748164_a_at) / Fold change /veh VCAN (11748164_a_at) / RFU JSRP1 (11732532_at) / Fold change /veh JSRP1 (11732532_at) / RFU KRTAP10-11 (11738290_x_at) / Fold change /veh KRTAP10-11 (11738290_x_at) / RFU MYO3A (11730013_a_at) / Fold change /veh MYO3A (11730013_a_at) / RFU EBF3 (11725865_a_at) / Fold change /veh EBF3 (11725865_a_at) / RFU CAMK2N1 (11719241_x_at) / Fold change /veh CAMK2N1 (11719241_x_at) / RFU C5orf56 (11738088_a_at) / Fold change /veh C5orf56 (11738088_a_at) / RFU OLFML3 (11715873_a_at) / Fold change /veh OLFML3 (11715873_a_at) / RFU LOC100653217 /// NTM (11731650_a_at) / Fold change /veh LOC100653217 /// NTM (11731650_a_at) / RFU MAPK11 (11762145_a_at) / Fold change /veh MAPK11 (11762145_a_at) / RFU FIZ1 (11724087_x_at) / Fold change /veh FIZ1 (11724087_x_at) / RFU OASL (11726364_x_at) / Fold change /veh OASL (11726364_x_at) / RFU SOX15 (11748057_x_at) / Fold change /veh SOX15 (11748057_x_at) / RFU CD79A (11719716_a_at) / Fold change /veh CD79A (11719716_a_at) / RFU HIST1H1D (11736915_at) / Fold change /veh HIST1H1D (11736915_at) / RFU CASKIN2 (11723855_a_at) / Fold change /veh CASKIN2 (11723855_a_at) / RFU LOC730098 (11760151_x_at) / Fold change /veh LOC730098 (11760151_x_at) / RFU OR4N2 (11742367_at) / Fold change /veh OR4N2 (11742367_at) / RFU PRRT2 (11749266_a_at) / Fold change /veh PRRT2 (11749266_a_at) / RFU SNX32 (11753110_a_at) / Fold change /veh SNX32 (11753110_a_at) / RFU CDHR5 (11726645_a_at) / Fold change /veh CDHR5 (11726645_a_at) / RFU RCAN1 (11760418_a_at) / Fold change /veh RCAN1 (11760418_a_at) / RFU FAM167A (11723789_a_at) / Fold change /veh FAM167A (11723789_a_at) / RFU FAM26E (11764081_at) / Fold change /veh FAM26E (11764081_at) / RFU ISYNA1 (11749810_s_at) / Fold change /veh ISYNA1 (11749810_s_at) / RFU ACY1 (11761880_at) / Fold change /veh ACY1 (11761880_at) / RFU 11764098_at / Fold change /veh 11764098_at / RFU SAMD14 (11745864_x_at) / Fold change /veh SAMD14 (11745864_x_at) / RFU NPB (11741838_a_at) / Fold change /veh NPB (11741838_a_at) / RFU TMPRSS6 (11731388_a_at) / Fold change /veh TMPRSS6 (11731388_a_at) / RFU KRTAP10-2 (11738614_at) / Fold change /veh KRTAP10-2 (11738614_at) / RFU ARHGAP8 /// PRR5-ARHGAP8 (11727945_x_at) / Fold change /veh ARHGAP8 /// PRR5-ARHGAP8 (11727945_x_at) / RFU KRTAP5-7 /// NADSYN1 (11734609_at) / Fold change /veh KRTAP5-7 /// NADSYN1 (11734609_at) / RFU RASL12 (11751679_a_at) / Fold change /veh RASL12 (11751679_a_at) / RFU CDKN2B (11736163_a_at) / Fold change /veh CDKN2B (11736163_a_at) / RFU PRF1 (11729649_at) / Fold change /veh PRF1 (11729649_at) / RFU, ZNF638 /// ZNF638-IT1 / Fold change vs veh, ZNF638 /// ZNF638-IT1 / RFU, PANK3 / Fold change vs veh, PANK3 / RFU, SH3YL1 / Fold change vs veh, SH3YL1 / RFU, ZEB2 / Fold change vs veh, ZEB2 / RFU, NRIP1 / Fold change vs veh, NRIP1 / RFU, PTTG1IP / Fold change vs veh, PTTG1IP / RFU, CAPN2 / Fold change vs veh, CAPN2 / RFU, MED14 / Fold change vs veh, MED14 / RFU, SNORA58 / Fold change vs veh, SNORA58 / RFU, C1orf63 / Fold change vs veh, C1orf63 / RFU, LRRFIP1 / Fold change vs veh, LRRFIP1 / RFU, NDUFAF7 / Fold change vs veh, NDUFAF7 / RFU, SLC12A2 / Fold change vs veh, SLC12A2 / RFU, IBTK / Fold change vs veh, IBTK / RFU, ESF1 / Fold change vs veh, ESF1 / Fold change vs veh, TMEM50B / RFU, TAOK1 / Fold change vs veh, TAOK1 / RFU, ACBD3 / Fold change vs veh, ACBD3 / RFU, TMA16 / Fold change vs veh, TMA16 / RFU, RWDD3 / Fold change vs veh, RWDD3 / RFU, BCAT1 / Fold change vs veh, BCAT1 / RFU, EDEM3 / Fold change vs veh, EDEM3 / RFU, TMEM33 / Fold change vs veh, TMEM33 / RFU, WDR75 / Fold change vs veh, WDR75 / RFU, AHCTF1 / Fold change vs veh, AHCTF1 / RFU, TFRC / Fold change vs veh, TFRC / RFU, ZDHHC17 / Fold change vs veh, ZDHHC17 / RFU, NOM1 / Fold change vs veh, NOM1 / RFU, ARL8B / Fold change vs veh, ARL8B / RFU, ZBTB11 / Fold change vs veh, ZBTB11 / RFU, TAMM41 / Fold change vs veh, TAMM41 / RFU, KIAA1704 /// LOC100996395 / Fold change vs veh, KIAA1704 /// LOC100996395 / RFU, ING1 / Fold change vs veh, ING1 / RFU, TRMT61B / Fold change vs veh, TRMT61B / RFU, FUBP3 / Fold change vs veh, FUBP3 / RFU, TP53 / Fold change vs veh, TP53 / RFU, TNKS2 / Fold change vs veh, TNKS2 / RFU, ZFP14 / Fold change vs veh, ZFP14 / RFU, ACTR2 / Fold change vs veh, ACTR2 / RFU, PPP3R1 / Fold change vs veh, PPP3R1 / RFU, PIK3R1 / Fold change vs veh, PIK3R1 / RFU, HNRNPA1 / Fold change vs veh, HNRNPA1 / RFU, RNF170 / Fold change vs veh, RNF170 / RFU, ZNF28 / Fold change vs veh, ZNF28 / RFU, RNGTT / Fold change vs veh, RNGTT / RFU, OGT / Fold change vs veh, OGT / RFU, BRD1 / Fold change vs veh, BRD1 / RFU, MARS / Fold change vs veh, MARS / RFU, ZNF655 / Fold change vs veh, ZNF655 / RFU, FAHD1 / Fold change vs veh, FAHD1 / RFU, BDP1 / Fold change vs veh, BDP1 / RFU, LRRCC1 / Fold change vs veh, LRRCC1 / RFU, ARID1A / Fold change vs veh, ARID1A / RFU, ZNF146 / Fold change vs veh, ZNF146 / RFU, ZNF330 / Fold change vs veh, ZNF330 / RFU, GPN3 / Fold change vs veh, GPN3 / RFU, C9orf123 / Fold change vs veh, C9orf123 / RFU, N4BP2L2 / Fold change vs veh, N4BP2L2 / RFU, ARFIP1 / Fold change vs veh, ARFIP1 / RFU, FAM179B / Fold change vs veh, FAM179B / RFU, BCL10 / Fold change vs veh, BCL10 / RFU, UHRF1BP1L / Fold change vs veh, UHRF1BP1L / RFU, BET1 / Fold change vs veh, BET1 / RFU, CNOT2 / Fold change vs veh, CNOT2 / RFU, ZNF268 / Fold change vs veh, ZNF268 / Fold change vs veh, ZNF507 / RFU, DGCR2 / Fold change vs veh, DGCR2 / RFU, WDSUB1 / Fold change vs veh, WDSUB1 / Fold change vs veh, HSP90B1 /// MIR3652 / RFU, ADSS / Fold change vs veh, ADSS / RFU, GK / Fold change vs veh, GK / RFU, ZNF148 / Fold change vs veh, ZNF148 / RFU, TAF9 / Fold change vs veh, TAF9 / RFU, SLC1A5 / Fold change vs veh, SLC1A5 / RFU, SLMO2 / Fold change vs veh, SLMO2 / RFU, ABCC4 / Fold change vs veh, ABCC4 / RFU, LOC101060439 /// RAP1B / Fold change vs veh, LOC101060439 /// RAP1B / RFU, RFX7 / Fold change vs veh, RFX7 / RFU, GTPBP10 / Fold change vs veh, GTPBP10 / RFU, CNEP1R1 / Fold change vs veh, CNEP1R1 / RFU, BIVM-ERCC5 /// ERCC5 / Fold change vs veh, BIVM-ERCC5 /// ERCC5 / RFU, ILF3 / Fold change vs veh, ILF3 / RFU 11762660_at / Fold change /veh 11762660_at / RFU VCAN (11757783_s_at) / Fold change /veh VCAN (11757783_s_at) / RFU DDX43 (11728927_at) / Fold change /veh DDX43 (11728927_at) / RFU KRT8 (11758188_x_at) / Fold change /veh KRT8 (11758188_x_at) / RFU NKD1 (11759106_at) / Fold change /veh NKD1 (11759106_at) / RFU SRD5A1 (11742802_a_at) / Fold change /veh SRD5A1 (11742802_a_at) / RFU TPSAB1 /// TPSB2 (11721975_s_at) / Fold change /veh TPSAB1 /// TPSB2 (11721975_s_at) / RFU GSTM3 (11746129_a_at) / Fold change /veh GSTM3 (11746129_a_at) / RFU IL23R (11737362_x_at) / Fold change /veh IL23R (11737362_x_at) / RFU TMEM51 (11727254_a_at) / Fold change /veh TMEM51 (11727254_a_at) / RFU PIWIL2 (11732686_x_at) / Fold change /veh PIWIL2 (11732686_x_at) / RFU ORM1 (11744905_x_at) / Fold change /veh ORM1 (11744905_x_at) / RFU CCDC152 (11743942_at) / Fold change /veh CCDC152 (11743942_at) / RFU ECM1 (11717891_a_at) / Fold change /veh ECM1 (11717891_a_at) / RFU IL23R (11748794_a_at) / Fold change /veh IL23R (11748794_a_at) / RFU TNFAIP8L3 (11732012_x_at) / Fold change /veh TNFAIP8L3 (11732012_x_at) / RFU MBOAT4 (11741988_at) / Fold change /veh MBOAT4 (11741988_at) / RFU 11764193_at / Fold change /veh 11764193_at / RFU TMEM53 (11763286_at) / Fold change /veh TMEM53 (11763286_at) / RFU MAGEB2 (11727129_at) / Fold change /veh MAGEB2 (11727129_at) / RFU TMEM200A (11744735_a_at) / Fold change /veh TMEM200A (11744735_a_at) / RFU CCDC152 (11751479_a_at) / Fold change /veh CCDC152 (11751479_a_at) / RFU FAM211A (11726209_a_at) / Fold change /veh FAM211A (11726209_a_at) / RFU RGS16 (11746705_a_at) / Fold change /veh RGS16 (11746705_a_at) / RFU VCAN (11755009_s_at) / Fold change /veh VCAN (11755009_s_at) / RFU RHOB (11743442_s_at) / Fold change /veh RHOB (11743442_s_at) / RFU RGS16 (11720943_a_at) / Fold change /veh RGS16 (11720943_a_at) / RFU RGS16 (11720944_at) / Fold change /veh RGS16 (11720944_at) / RFU, VPS4B / Fold change vs veh, VPS4B / RFU, CREB1 / Fold change vs veh, CREB1 / RFU, DNAJC13 / Fold change vs veh, DNAJC13 / RFU, GNAQ / Fold change vs veh, GNAQ / RFU, CDK5R1 / Fold change vs veh, CDK5R1 / RFU, ZRANB3 / Fold change vs veh, ZRANB3 / RFU, CUL4A / Fold change vs veh, CUL4A / RFU, CCNY / Fold change vs veh, CCNY / RFU, UFL1 / Fold change vs veh, UFL1 / RFU, COG3 / Fold change vs veh, COG3 / RFU, DIAPH2 / Fold change vs veh, DIAPH2 / RFU, SKA2 / Fold change vs veh, SKA2 / RFU, AFF3 / Fold change vs veh, AFF3 / RFU, LMF1 / Fold change vs veh, LMF1 / RFU, IPO11 / Fold change vs veh, IPO11 / RFU, DFFB / Fold change vs veh, DFFB / RFU, FOXP1 / Fold change vs veh, FOXP1 / RFU, CARD8 / Fold change vs veh, CARD8 / RFU, STRN3 / Fold change vs veh, STRN3 / RFU, ADK / Fold change vs veh, ADK / RFU, RASSF2 / Fold change vs veh, RASSF2 / RFU, WIPF1 / Fold change vs veh, WIPF1 / RFU, LARP1B / Fold change vs veh, LARP1B / RFU, RASA1 / Fold change vs veh, RASA1 / RFU, RB1 / Fold change vs veh, RB1 / RFU, PPFIA1 / Fold change vs veh, PPFIA1 / RFU, MAT2A / Fold change vs veh, MAT2A / RFU, CCT5 / Fold change vs veh, CCT5 / RFU, WDR92 / Fold change vs veh, WDR92 / RFU, CUX1 / Fold change vs veh, CUX1 / RFU, TTC7A / Fold change vs veh, TTC7A / RFU, TMEM135 / Fold change vs veh, TMEM135 / RFU, DEPTOR / Fold change vs veh, DEPTOR / RFU, CPM / Fold change vs veh, CPM / RFU, DNAJB6 / Fold change vs veh, DNAJB6 / RFU, CACNA2D3 / Fold change vs veh, CACNA2D3 / RFU, DTX4 / Fold change vs veh, DTX4 / RFU, TFCP2 / Fold change vs veh, TFCP2 / RFU, GMCL1 /// GMCL1P1 / Fold change vs veh, GMCL1 /// GMCL1P1 / RFU, AEBP2 / Fold change vs veh, AEBP2 / RFU, SNHG1 /// SNORD22 /// SNORD25 /// SNORD26 /// SNORD27 /// SNORD28 /// SNORD29 /// SNORD31 / Fold change vs veh, SNHG1 /// SNORD22 /// SNORD25 /// SNORD26 /// SNORD27 /// SNORD28 /// SNORD29 /// SNORD31 / Fold change (Aza/veh), C12orf56 (ProbeSet 11735607_a_at) / Fold change (ACY-1035/veh), C12orf56 (ProbeSet 11735607_a_at) / Fold change (Aza/veh), FGFR1OP (ProbeSet 11751329_s_at) / Fold change (ACY-1035/veh), FGFR1OP (ProbeSet 11751329_s_at) / Fold change (Aza/veh), VPS36 (ProbeSet 11739960_a_at) / Fold change (ACY-1035/veh), VPS36 (ProbeSet 11739960_a_at) / RFU SYPL1 (11715823_x_at) / Fold change /veh SYPL1 (11715823_x_at) / RFU IGFBP7 (11715501_s_at) / Fold change /veh IGFBP7 (11715501_s_at) / RFU REEP3 (11722064_at) / Fold change /veh REEP3 (11722064_at) / RFU IGLL1 (11728026_x_at) / Fold change /veh IGLL1 (11728026_x_at): dose or concentration left out as unconfirmed
Conditions: MV-4-11 cells, 48 hours

Nc1ncn([C@@H]2O[C@H](CO)[C@@H](O)[C@H]2O)c(=O)n1 [azacitidine]
RFU PLEKHG5 (11743358_a_at): 38.46 RFU
